This note sets out measurements from patent US20040043959A1, “Combination therapies for treating methylthioadenosine phosphorylase deficient cells” (priority 2002, published 2004).

The target of the experiment is T1, Human MTAP (Homo sapiens, UniProt Q13126).
T1 construct: six-histidine tag (His6) (N); made in house; host or cells: E. coli BL21 DE3
T1 sequence (Q13126 1-283): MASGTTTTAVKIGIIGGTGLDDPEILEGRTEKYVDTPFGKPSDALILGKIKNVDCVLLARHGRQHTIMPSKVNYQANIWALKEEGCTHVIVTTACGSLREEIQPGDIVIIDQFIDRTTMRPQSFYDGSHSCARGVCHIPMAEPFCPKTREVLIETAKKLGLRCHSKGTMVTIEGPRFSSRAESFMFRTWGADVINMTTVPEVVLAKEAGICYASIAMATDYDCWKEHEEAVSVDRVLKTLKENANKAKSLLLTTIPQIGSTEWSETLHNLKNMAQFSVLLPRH
Nature of the experiment: MTAP substrate assay, coupled spectrophotometric (adenine, xanthine oxidase). The class given is biochemical. The conditions noted are these: 2 nM MTAP; for activity at 50 µM: 10 min, compound 50 uM, relative to MTA at 50 uM, read-out: MT-A—50: initial velocity as a percentage of the initial velocity with MTA as substrate; for MT-A—10: initial velocity as a percentage of the initial velocity with MTA as substrate: compound 10 uM, relative to MTA at 10 uM. Here is the method:
An enzymatic assay to determine the activity of MTAP against a given substrate was performed. Human MTAP containing an N-terminal six-histidine tag was expressed in E. coli BL21 DE3 cells. The protein was purified to homogeneity by Ni2+ affinity chromatography. Enzymatic activity was measured using a coupled spectrophotometric assay designed to monitor the reaction product adenine (Savarese, T. M., Crabtree, G. W., and Parks, R. E. Jr., (1980) Biochem. Pharmacol. 30, 189-199). Various concentrations of the indicated 5′-deoxymethylthio adenosine (MTA) or substrate were incubated in assay buffer (40 mM potassium phosphate buffer, 1 mM, and DTT 0.8 units/ml xanthine oxidase coupling enzyme) for 5 minutes at 37° C. The reaction was initiated by the addition of MTAP. The exact concentration of enzyme used varied for each substrate tested and ranged from 2 nM to 500 nM. Activity as a function of enzyme concentration was determined for each substrate tested to ensure that the appropriate enzyme concentration was used. Activity was detected by continuous monitoring of absorbance at 305 nm for 10 minutes (ΔE=15,500 M^−1).
Library compounds (10 and 50 uM) were tested using the assay described above with 2 nM MTAP enzyme. The resultant initial velocities are reported as a percentage of the initial velocity observed when MTA is the substrate. MTA controls, 10 and 50 uM concentrations, were run on each plate alongside the library compounds.

`Cc1cccc2[nH]c(SC[C@H]3O[C@@H](n4cnc5c(N)ncnc54)[C@H](O)[C@@H]3O)nc12` [2(G)(46), (2R, 3R, 4S, 5S)-2-(6-amino-9H-purin-9-yl)-5-{[(4-methyl-1H-benzimidazol-2-yl)-thio]methyl}tetrahydro-furan-3,4-diol]: the activity at 50 µM was determined as 45% and the “MT-A—10: initial velocity as a percentage of the initial velocity with MTA as substrate” value was found to be 42%.

For `Nc1ncnc2c1ncn2[C@@H]1O[C@H](CSc2nc3cnccc3[nH]2)[C@@H](O)[C@H]1O` [2(G)(47), (2R, 3R, 4S, 5S)-2-(6-amino-9H-purin-9-yl)-5-[(1H-imidazo[4,5-c]-pyridin-2-ylthio)methyl]-tetrahydrofuran-3,4-diol], the activity at 50 µM turned out to be 50% and the “MT-A—10: initial velocity as a percentage of the initial velocity with MTA as substrate” value is given as 49%.

For `Cc1ccc2[nH]c(SC[C@H]3O[C@@H](n4cnc5c(N)ncnc54)[C@H](O)[C@@H]3O)nc2c1` [2(G)(48), (2R, 3R, 4S, 5S)-2-(6-amino-9H-purin-9-yl)-5-{[(5-methyl-1H-benzimidazol-2-yl)thio]-methyl}tetrahydro-furan-3,4-diol], the activity at 50 µM was found to be 5% and the “MT-A—10: initial velocity as a percentage of the initial velocity with MTA as substrate” value is given as 3%.

Consider `Nc1ncnc2c1ncn2[C@@H]1O[C@H](CSc2nc(O)c3cn[nH]c3n2)[C@@H](O)[C@H]1O` [2(G)(49), (2R, 3R, 4S, 5S)-2-(6-amino-9H-purin-9-yl)-5-{[(4-hydroxy-1H-pyrazolo[3,4-d]pyrimidin-6-yl)thio]methyl}tetra-hydrofuran-3,4-diol], for which the activity at 50 µM came out at 46% and the “MT-A—10: initial velocity as a percentage of the initial velocity with MTA as substrate” value came out at 52%.

Take `Nc1ncnc2c1ncn2[C@@H]1O[C@H](CSc2nc3ccccc3c(=O)[nH]2)[C@@H](O)[C@H]1O` [2(G)(50), 2-({[(2S, 3S, 4R, 5R)-2-(6-amino-9H-purin-9-yl)-dihydroxytetrahydro-furan-2-yl]methyl}thio)-quinazolin-4-(3H)-one]: the activity at 50 µM stood at 37% and the “MT-A—10: initial velocity as a percentage of the initial velocity with MTA as substrate” value came to 9%.

Regarding `Nc1ccc2[nH]c(SC[C@H]3O[C@@H](n4cnc5c(N)ncnc54)[C@H](O)[C@@H]3O)nc2c1` [2(G)(51), (2R, 3R, 4S, 5S)-2-(6-amino-9H-purin-9-yl)-5-{[(5-amino-1H-benzoimidazol-2-yl)thio]methyl}tetrahydro-furan-3,4-diol], the activity at 50 µM came to 36% and the “MT-A—10: initial velocity as a percentage of the initial velocity with MTA as substrate” value is recorded as 16%.

On to `Cc1nnc(SC[C@H]2O[C@@H](n3cnc4c(N)ncnc43)[C@H](O)[C@@H]2O)s1` [2(G)(52), (2R, 3R, 4S, 5S)-2-(6-amino-9H-purin-9-yl)-5-{[(5-methyl-1,3,4-thiadiazol-2-yl)thio]methyl}tetrahydro-furan-3,4-diol], for which the activity at 50 µM stood at 23% and the “MT-A—10: initial velocity as a percentage of the initial velocity with MTA as substrate” value came out at 19%.

For `Nc1ncnc2c1ncn2[C@@H]1O[C@H](CSc2nc[nH]n2)[C@@H](O)[C@H]1O` [2(G)(53), (2R, 3R, 4S, 5S)-2-(6-amino-9H-purin-9-yl)-5-[(1H-1,2,4-triazol-3-ylthio)methyl]tetrahydro-furan-3,4-diol], the activity at 50 µM was determined as 57% and the “MT-A—10: initial velocity as a percentage of the initial velocity with MTA as substrate” value was 58%.

As to `COC(=O)CSC[C@H]1O[C@@H](n2cnc3c(N)ncnc32)[C@H](O)[C@@H]1O` [2(G)(54), methyl ({[(2S, 3S, 4R, 5R)-5-(6-amino-9H-purin-9-yl)-3,4-dihydroxy-tetrahydrofuran-2-yl]methyl}thio)acetate], the activity at 50 µM was 44% and the “MT-A—10: initial velocity as a percentage of the initial velocity with MTA as substrate” value is recorded as 36%.

As for `Nc1ncnc(SC[C@H]2O[C@@H](n3cnc4c(N)ncnc43)[C@H](O)[C@@H]2O)n1` [2(G)(55), (2R, 3R, 4S, 5S)-2-(6-amino-9H-purin-9-yl)-5-{[(4-amino-1,3,5-triazin-2-yl)thio]methyl}tetra-hydrofuran-3,4-diol], the activity at 50 µM was determined as 47% and the “MT-A—10: initial velocity as a percentage of the initial velocity with MTA as substrate” value was found to be 43%.

Turning to `CNC(=O)CSC[C@H]1O[C@@H](n2cnc3c(N)ncnc32)[C@H](O)[C@@H]1O` [2(G)(56), 2-({[(2S, 3S, 4R, 5R)-5-(6-amino-9H-purin-9-yl)-dihydroxytetrahydrofuran-2-yl]methyl}thio)-N-methylacetamide], the activity at 50 µM amounted to 10% and the “MT-A—10: initial velocity as a percentage of the initial velocity with MTA as substrate” value turned out to be 6%.

Regarding `Nc1ncnc2c1ncn2[C@@H]1O[C@H](CSCCCCO)[C@@H](O)[C@H]1O` [2(G)(57)], the activity at 50 µM was 45% and the “MT-A—10: initial velocity as a percentage of the initial velocity with MTA as substrate” value is given as 31%.

For the compound `Nc1ncnc2c1ncn2[C@@H]1O[C@H](CSCCc2ccncc2)[C@@H](O)[C@H]1O` [2(G)(58), (2R, 3R, 4S, 5S)-2-(6-amino-9H-purin-9-yl)-5-{[(2-pyridin-4-ylethyl)thio]methyl}tetra-hydrofuran-3,4-diol], the activity at 50 µM came to 47% and the “MT-A—10: initial velocity as a percentage of the initial velocity with MTA as substrate” value amounted to 38%.

Consider `Nc1cccnc1SC[C@H]1O[C@@H](n2cnc3c(N)ncnc32)[C@H](O)[C@@H]1O` [2(G)(59), (2R, 3R, 4S, 5S)-2-(6-amino-9H-purin-9-yl)-5-{[(3-aminopyridin-2-yl)thio]methyl}tetra-hydrofuran-3,4-diol], for which the activity at 50 µM turned out to be 47% and the “MT-A—10: initial velocity as a percentage of the initial velocity with MTA as substrate” value came out at 18%.

In the case of `NC(=O)c1cccnc1SC[C@H]1O[C@@H](n2cnc3c(N)ncnc32)[C@H](O)[C@@H]1O` [2(G)(60), 2-({[(2S, 3S, 4R, 5R)-5-(6-amino-9H-purin-9-yl)-3,4-dihydroxytetrahydro-furan-2-yl]methyl}thio)-nicotinamide], the activity at 50 µM is 8% and the “MT-A—10: initial velocity as a percentage of the initial velocity with MTA as substrate” value was determined as 4%.

With `Nc1ncnc2c1ncn2[C@@H]1O[C@H](CSCCc2cnccn2)[C@@H](O)[C@H]1O` [2(G)(61)], the activity at 50 µM came out at 20% and the “MT-A—10: initial velocity as a percentage of the initial velocity with MTA as substrate” value was 15%.

`CC1OCCC1SC[C@H]1O[C@@H](n2cnc3c(N)ncnc32)[C@H](O)[C@@H]1O` (stereo partly drawn) [2(G)(62), (2R, 3R, 4S, 5S)-2-(6-amino-9H-purin-9-yl)-5-{[(2-methyltetra-hydrofuran-3-yl)thio]methyl}tetrahydrofuran-3,4-diol]: the activity at 50 µM was found to be 7% and the “MT-A—10: initial velocity as a percentage of the initial velocity with MTA as substrate” value was 6%.

Regarding `Cn1c(CO)cnc1SC[C@H]1O[C@@H](n2cnc3c(N)ncnc32)[C@H](O)[C@@H]1O` [2(G)(63), (2R, 3R, 4S, 5S)-2-(6-amino-9H-purin-9-yl)-5-({[5-(hydroxymethyl)-1-methyl-1H-imidazol-2-yl]thio}methyl)tetra-hydrofuran-3,4-diol], the activity at 50 µM worked out at 5% and the “MT-A—10: initial velocity as a percentage of the initial velocity with MTA as substrate” value was determined as 5%.

In the case of `Nc1ncnc2c1ncn2[C@@H]1O[C@H](CSc2nc(O)c3cc[nH]c3n2)[C@@H](O)[C@H]1O` [2(G)(64), (2R, 3R, 4S, 5S)-2-(6-amino-9H-purin-9-yl)-5-{[(4-hydroxy-7H-pyrrolo[2,3-d]pyrimidin-2-yl)thio]methyl}tetra-hydrofuran-3,4-diol], the activity at 50 µM amounted to 48% and the “MT-A—10: initial velocity as a percentage of the initial velocity with MTA as substrate” value was 48%.
